In patent EP4640686A1, “DEGRADER FOR DEGRADING BRD PROTEIN AND PHARMACEUTICAL COMPOSITION CONTAINING SAME” (Innocure Therapeutics, Inc., priority 2022, dated 2024):

How the values were obtained:
Type in all cases: cell-based
BRD4 [1] = target: T1, BRD4 (Homo sapiens, UniProt O60885); assay: BRD4 protein degradation by western blotting in RPMI2650 cells (24 h treatment); parameters: To evaluate the resolution of PROTAC for BRD4 expressed in cells; endogenous in cells; host or cells: RPMI2650; conditions: read-out: BR04 (DC50), RPMI2650
How it was run: (§1)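 Cells seeded at 5 X 10^5 cells/well and exposed to serially diluted compound for 24 hours. Western blot bands were quantified by densitometry, normalized to β-actin or GAPDH and expressed as % of 0.1% DMSO vehicle. DC50 is the concentration giving 50% loss of protein.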

BRD4-NUT = target: T2, BRD4-NUT (Homo sapiens, UniProt O60885+Q86Y26); assay: BRD4-NUT protein degradation by western blotting in RPMI2650 cells (24 h treatment); conditions: read-out: BRD4-NUT (DC50), RPMI2650
T2 construct: endogenous in cells; host or cells: RPMI2650
How it was run: as §1

MDA-MB-231 = assay: Cancer cell antiproliferative activity / cell viability in MDA-MB-231 cells (72 h treatment); conditions: Homo sapiens, read-out: BRD4 (IC50)
Method: (§2) The human breast cancer cell line [MDA-MB-231] was cultured in RPMI medium with the addition of 10% fetal bovine serum, penicillin [100U/ml], and streptomycin [[…]]. The synthesized compounds were prepared with a 10 mM or 50 mM raw material solution dissolved in DMSO [dimethyl sulfoxide], and were diluted sequentially and treated. [RPMI2650] and [SNU2972] were cultivated under specific conditions.
(§3) To observe cell growth inhibition, cells were dispensed in a concentration of 5,000 cells/well in a 96-well plate, and samples prepared at various concentrations were treated for 72 hours. The IC50 value (the concentration of the compound achieving 50% cytostaticism) is the average value of the results of three independent measurements.

RPMI2650 = assay: Cancer cell antiproliferative activity / cell viability in RPMI2650 cells (72 h treatment); conditions: Homo sapiens, RPMI-2650, RPMI2650, read-out: BRD4 (IC50)
How it was run: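 RPMI2650 human cells were grown under specific culture conditions and seeded at 5,000 cells/well in 96-well plates. Test compounds, dissolved in DMSO as 10 mM or 50 mM stock solutions and serially diluted, were applied at various concentrations for 72 hours. IC50, the concentration giving 50% cytostasis, was averaged over three independent measurements.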

SNU2972 = assay: Cancer cell antiproliferative activity / cell viability in SNU2972 cells (72 h treatment); conditions: read-out: BRD4 (IC50)
Method: as §2, §3

BRD4 [2] = target: T1, BRD4; assay: BRD4 protein degradation by western blotting in MDA-MB-231 cells (24 h treatment); parameters: To evaluate the resolution of PROTAC for BRD4 expressed in cells; endogenous in cells; host or cells: MDA-MB-231

Row | SMILES | DC50 (BRD4 [1]) | DC50 (BRD4-NUT) | IC50 (MDA-MB-231) | IC50 (RPMI2650) | IC50 (SNU2972) | DC50 (BRD4 [2])
1 | Cc1sc2c(c1C)C(c1ccc(Cl)cc1)=N[C@@H](CC(=O)N1CC(N3CCN(c4ccc5c(=O)n(C6CCC(=O)NC6=O)nc(C)c5c4)CC3)C1)c1nnc(C)n1-2 (stereo partly drawn) [ICT-0000974, 3-(6-(4-(1-(2-((S)-4-(4-chlorophenyl)-2,3,9-trimethyl-6H-thieno[3,2-f][1,2,4]triazolo[4,3-a][1,4]diazepine-6-yl)acetyl)azetidine-3-il)piperazine-1-yl)-4-methyl-1-oxopthalazine-2(1H)-yl)piperidine-2,6-dione] | < 0.1 µM | < 0.1 µM | < 0.1 µM | < 0.1 µM | < 0.1 µM | < 0.1 µM
2 | Cc1sc2c(c1C)C(c1ccc(Cl)cc1)=N[C@@H](CC(=O)N1CCC(CN3CCN(c4cc5c(C)nn(C6CCC(=O)NC6=O)c(=O)c5cc4F)CC3)CC1)c1nnc(C)n1-2 (stereo partly drawn) [ICT-0000953, 3-(6-(4-((1-(2-((S)-4-(4-chlorophenyl)-2,3,9-trimethyl-6H-thieno[3,2-f][1,2,4]triazolo[4,3-a][1,4]diazepine-6-il)acetyl)piperidine-4-il)methyl)piperazine-1-il)-7-fluoro-4-methyl-1-oxopthalazine-2(1H)-yl)piperidine-2,6-dione] | < 0.1 µM | < 0.1 µM | < 0.1 µM | < 0.1 µM | < 0.1 µM | < 0.1 µM
3 | Cc1sc2c(c1C)C(c1ccc(Cl)cc1)=N[C@@H](CC(=O)N1CC(N3CCN(c4ccc5c(=O)n(C6CCC(=O)NC6=O)ncc5c4)CC3)C1)c1nnc(C)n1-2 (stereo partly drawn) [ICT-0000973, 3-(6-(4-(1-(2-((S)-4-(4-chlorophenyl)-2,3,9-trimethyl-6H-thieno[3,2-f][1,2,4]triazolo[4,3-a][1,4]diazepine-6-day)acetyl)azetidine-3-il)piperazine-1-yl)-1-oxopthalazine-2(1H)-yl)piperidine-2,6-dione] | < 0.1 µM | < 0.1 µM | < 0.1 µM | 0.1 to 1 µM | 0.1 to 1 µM | < 0.1 µM
4 | Cc1sc2c(c1C)C(c1ccc(Cl)cc1)=N[C@@H](CC(=O)N1CCC(CN3CCN(c4ccc5c(C)nn(C6CCC(=O)NC6=O)c(=O)c5c4)CC3)CC1)c1nnc(C)n1-2 (stereo partly drawn) [ICT-0000982, 3-(7-(4-((1-(2-((S)-4-(4-chlorophenyl)-2,3,9-trimethyl-6H-thieno[3,2-f][1,2,4]triazolo[4,3-a][1,4]diazepine-6-day)acetyl)piperidine-4-il)methyl)piperazine-1-yl)4-methyl-1-oxopthalazine-2(1H)-yl)piperidine-2,6-dione] | < 0.1 µM | < 0.1 µM | < 0.1 µM | < 0.1 µM | < 0.1 µM | < 0.1 µM
5 | Cc1sc2c(c1C)C(c1ccc(Cl)cc1)=N[C@@H](CC(=O)N1CCC(CN3CCN(c4cc5c(=O)n(C6CCC(=O)NC6=O)ncc5cc4F)CC3)CC1)c1nnc(C)n1-2 (stereo partly drawn) [ICT-0000972, 3-(7-(4-((1-(2-((S)-4-(4-chlorophenyl)-2,3,9-trimethyl-6H-thieno[3,2-f][1,2,4]triazolo[4,3-a][1,4]diazepine-6-day)acetyl)piperidine-4-il)methyl)piperazine-1-yl)-6-fluoro-1-oxopthalazine-2(1H)-yl)piperidine-2,6-dione] | < 0.1 µM | < 0.1 µM | < 0.1 µM | 0.1 to 1 µM | < 0.1 µM | < 0.1 µM
